In publication PMC2962730 (Journal of neurochemistry, 2010):
Changes are numbered by the printed parent chain.

Assays:
[1] = biological target: T1, hVAChT F392A (Homo sapiens, UniProt Q16572, F392A); assay: [3H]ACh transport; format: biochemical
T1 sequence (Q16572 1-532 F392A): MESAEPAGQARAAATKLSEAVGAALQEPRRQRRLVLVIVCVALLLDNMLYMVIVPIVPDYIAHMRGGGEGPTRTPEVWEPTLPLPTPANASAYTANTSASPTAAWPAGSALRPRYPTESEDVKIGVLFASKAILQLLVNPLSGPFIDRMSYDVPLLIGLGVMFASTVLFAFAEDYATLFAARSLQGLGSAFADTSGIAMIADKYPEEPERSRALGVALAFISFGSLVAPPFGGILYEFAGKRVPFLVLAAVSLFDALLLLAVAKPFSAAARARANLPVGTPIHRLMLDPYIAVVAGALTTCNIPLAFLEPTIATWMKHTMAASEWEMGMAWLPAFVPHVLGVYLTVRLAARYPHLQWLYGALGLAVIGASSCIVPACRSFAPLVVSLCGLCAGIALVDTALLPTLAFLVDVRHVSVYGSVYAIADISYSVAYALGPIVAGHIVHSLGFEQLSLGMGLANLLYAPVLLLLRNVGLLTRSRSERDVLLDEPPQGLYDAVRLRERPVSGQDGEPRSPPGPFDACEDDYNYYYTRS

[2] = biological target: T2, hVAChT K317A (Homo sapiens, UniProt Q16572, K317A); assay: ACh equilibrium binding by competition against [3H]vesamicol
T2 sequence (Q16572 1-532 K317A): T1 sequence (Q16572 1-532 F392A) with K317A, A392F

[3] = biological target: T3, hVAChT W331L (Homo sapiens, UniProt Q16572, W331L); assay: as above
T3 sequence (Q16572 1-532 W331L): T1 sequence (Q16572 1-532 F392A) with W331L, A392F

[4] = biological target: T4, hVAChT Y60H (Homo sapiens, UniProt Q16572, Y60H); assay: as above
T4 sequence (Q16572 1-532 Y60H): T1 sequence (Q16572 1-532 F392A) with Y60H, A392F

[5] = biological target: T5, hVAChT C388A (Homo sapiens, UniProt Q16572, C388A); assay: as above
T5 sequence (Q16572 1-532 C388A): T1 sequence (Q16572 1-532 F392A) with C388A, A392F

[6] = system: VAChT C391Y; details: ref Zhu et al. (2001); cited from earlier work

CC(=O)OCC[N+](C)(C)C [ACh, acetylcholine]
Vmax/Bmax, ACh transport normalized to Bmax ([1]; pH 7.4): 11 ± 1 min⁻¹ | Km ([1]; read-out: KM, Michaelis-Menten constant for ACh transport, pH 7.4): 520 ± 110 µM | Kd [2]: 6.9 ± 1.2 mM | FHA, fraction of the ACh sites that have high affinity ([2]; K317A hVAChT, pH 7.4): 0.72 ± 0.06 | ACh bound more weakly than by wild-type ([3]; W331L hVAChT vs wild-type): 10 fold | FHA, fraction of the ACh sites that have high affinity ([3]; W331L hVAChT, pH 7.4, monophasic fit, FHA fixed to 1): 1.0 | Kd [4]: 11 mM | FHA, fraction of the ACh sites that have high affinity ([4]; Y60H hVAChT, pH 7.4): 0.82 ± 0.04 | Kd [5]: 17 ± 4 mM | FHA, fraction of the ACh sites that have high affinity ([5]; C388A hVAChT, pH 7.4): 0.88 ± 0.08 | higher KM value for transport [6]: 2.6 fold
